“Also recorded” adds a separate entry of the source. Like-named read-outs stand apart in the source and are kept apart here.
Key:
[1] = Plasma pharmacokinetics of SAHA and its two major metabolites (LC-MS/MS) in the phase I study; assay type: in vivo, human
Description: Samples are assayed by the HPLC method (Kelly W K, Richon V M, O'Connor O, et al. Clin. Cancer Res. 2003; 9:3578-88) or by LC/MS assay. […] Quantitation of Paclitaxel and total platinum concentrations is done by validated methodology. […] Compartmental modeling is done with the computer program ADAPT II. Non-compartmental modeling is done with the […] function as implemented by the computer program […]. […] The time that Paclitaxel concentrations remain above 0.05 μM is determined using a limited sampling strategy with the 24-hour sample. […] Methods: Eligible patients were those with advanced solid malignancies who were candidates for combination therapy with Carboplatin and Paclitaxel. […] Carboplatin and Paclitaxel were given on Day 1 of each cycle.

[2] = tested on: patients with advanced solid malignancies; assay: Phase I study of SAHA in combination with Carboplatin and Paclitaxel: dose-limiting and other toxicities; assay type: in vivo, human; conditions: in the combination
Description: The study is designed to define dose-limiting and non-dose limiting toxicities associated with this combination, and to obtain evidence of anti-tumor activity.
Both Carboplatin and Paclitaxel are administered on Day 1 of each treatment cycle. […] Each treatment cycle lasts for 3 weeks.
Definition of dose-limiting toxicity (DLT): Toxicities must be attributable to the study drug(s) to constitute DLT. […] If baseline value is elevated prior to drug therapy, an increase is not considered a DLT unless there is an elevation by more than two grades, and it is of clinical significance. Management and dose modifications associated with the above adverse events are outlined below.
Dosing delays and dose modifications: No intra-patient dose escalation is used. Chemotherapy doses may be reduced for hematological and non-hematological effects. Dose adjustments are to be made according to the system showing the greatest degree of toxicity. Toxicity is graded using the National Cancer Institute Common Toxicity Criteria (NCI CTC) for adverse events (version 3.0). Treatment may be delayed no more than two weeks to allow recovery from toxicity. Dose adjustments for toxicity are made according to the following guidelines.
Methods: Eligible patients were those with advanced solid malignancies who were candidates for combination therapy with Carboplatin and Paclitaxel. […] Carboplatin and Paclitaxel were given on Day 1 of each cycle.

[3] = tested on: patients with advanced solid malignancies; conditions: on this schedule; cited from earlier work
[4] = tested on: carcinogen-induced (N-methylnitrosourea) mammary tumors; conditions: rats, SAHA in their diet over the 130 days of the study; cited from earlier work
[5] = oral SAHA with food; cited from earlier work
[6] = human, plasma, po, oral SAHA, patients, plasma, Example 8, read-out: t1/2 (elimination half life) (converted)

For `O=C(O)CCC(=O)Nc1ccccc1` [4-Anilino-4-oxobutanoic acid], the half-life ([1]; human, plasma, po, Example 9, further results, patients after oral SAHA, read-out: t1/2 of acid metabolite (converted)) was 4.1 ± 1.3 h, the half-life [1, 6] was roughly 6 h and the “Cmax relative to SAHA Cmax” value ([1]; metabolite in plasma after oral SAHA, fold greater than SAHA Cmax) was 1.5-7 fold.
For `CC(=O)O[C@H]1C(=O)[C@@]2(C)[C@H]([C@H](OC(=O)c3ccccc3)[C@]3(O)C[C@H](OC(=O)[C@H](O)[C@@H](NC(=O)c4ccccc4)c4ccccc4)C(C)=C1C3(C)C)[C@]1(OC(C)=O)CO[C@@H]1C[C@@H]2O` [Paclitaxel, 5-beta, 20-epoxy-1,2-alpha, 4,7-beta, 10-beta, 13-alpha-hexahydroxytax-11-en-9-one 4,10-diacetate 2-benzoate 13-ester with (2R,3S)—N-benzoyl-3-phenylisoserine], the “Dose recommended for phase II studies” value ([2]; Day 1, 3 week cycles) was 200 mg/m^2.
In the case of `O=C(CCCCCCC(=O)Nc1ccccc1)NO[C@@H]1O[C@H](C(=O)O)[C@@H](O)[C@H](O)[C@H]1O` [SAHA glucuronide], the “t1/2 (elimination half life)” value ([1]; human, in vivo, po) is reported as “approximately 2 h”.
With `O=C(CCCCCCC(=O)Nc1ccccc1)NO` [SAHA, N-Hydroxy-N′-phenyl octanediamide] the “Dose recommended for phase II studies” value ([2]; PO QD (Days 1-14), 3 week cycles) was 400 mg, the “effect of Carboplatin and Paclitaxel on SAHA pharmacokinetics” value ([1]; Day -4 (SAHA alone) vs Day 1 (with Carboplatin and Paclitaxel)) was “did not alter SAHA pharmacokinetics; also recorded: not altered” and the “SAHA clearance on Day 1 as compared to Day -4” value ([1]; Example 9, most recent data) was “potential decreased clearance”. For the same compound, the half-life [1, 6] was 1.6 ± 0.5 h, the Tmax ([1]; human, plasma, po, read-out: Tmax (time to maximum plasma or serum concentration)) was 0.5 to 2 h and the AUC versus dose ([1]; oral SAHA 200-400 mg, patients) was “increased with dose”. The absorption ([1]; oral SAHA, patients) was “rapidly absorbed”, the “CL/F (clearance/bioavailability)” value ([1]; oral SAHA, patients, Example 8) was 5.8 ± 1.7 L/min and the “RP2D of single agent SAHA” value [3] was 400 mg. For the same compound, the “development and continued growth of carcinogen-induced (N-methylnitrosourea) mammary tumors” value [4] was “effective at inhibiting” and the “bioavailability when taken with food” value [5] was “does not alter the bioavailability”.
With `[NH2][Pt]1([NH2])[O]C(=O)C2(CCC2)C(=O)[O]1` [Carboplatin, platinum, diammine [1,1-cyclobutane-dicarboxylato (2-)-0,0′]-, (SP-4-2)] the “Dose recommended for phase II studies” value ([2]; Day 1, 3 week cycles) was 6 AUC.

Reference: patent publication US20090105329A1 (priority 2005, published 2009)
